Test [1] deals with pSTAT1(2)-luciferase reporter in HeLa cells triggered with human OSM. Put plainly: JAK-STAT signalling assay. Conditions: read-out: JAK-STAT IC50. In kind it is cell-based. A digest of the protocol:
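Compound added 60 min before 33 ng/mL (final) human OSM; after overnight stimulation at 37 °C, luciferase signal from a transiently transfected pSTAT1(2) reporter in HeLa cells was read, with LacZ as internal control. EC50 derived from percent-inhibition dose-response curves.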

The next test deals with T1, human JAK3 (Homo sapiens, UniProt P52333).
T1 construct: catalytic domain (amino acids 781-1124; catalog number PV3855); purchased Invitrogen PV3855
The test can be described thus: JAK3 inhibition assay. In kind it is biochemical. Conditions: recombinant human JAK3 catalytic domain; polyGT substrate. In outline: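 Radiometric kinase assay: 0.5 ng JAK3 with 2.5 μg polyGT in Tris pH 7.5/MgCl2 buffer, 1 μM ATP plus 0.25 μCi 33P-γ-ATP, 1% DMSO, 45 min at 30 °C, stopped with phosphoric acid.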

The target in another test is T2, human JAK1 (Homo sapiens, UniProt P23458).
T2 construct: catalytic domain, amino acids 866-1154; catalog number PV4774; purchased Invitrogen PV4774
The test can be described thus: JAK1 inhibition assay (polyGT substrate / Ulight-JAK1 peptide). In kind it is biochemical. Conditions: recombinant human JAK1 catalytic domain; polyGT or Ulight-JAK1 peptide assay. A digest of the protocol: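 Signal scaled between vehicle and 10 μM staurosporine. Radiometric polyGT reactions ran 45 min at 30 °C, counted after phosphoric-acid stop. Ulight peptide reactions ran 60 min at room temperature, fluorescence read after adding Eu-PT66 detection mix with EDTA.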

Setting [2] is: Homo sapiens, HeLa, HeLa cells, pSTAT1(2)-luciferase reporter, human OSM 33 ng/mL.
Where [3] appears, read: HeLa cells, pSTAT1(2)-luciferase reporter, human OSM 33 ng/mL.

Read-outs that look alike come from different tables or passages of the source.

T1 sequence (P52333 781-1124): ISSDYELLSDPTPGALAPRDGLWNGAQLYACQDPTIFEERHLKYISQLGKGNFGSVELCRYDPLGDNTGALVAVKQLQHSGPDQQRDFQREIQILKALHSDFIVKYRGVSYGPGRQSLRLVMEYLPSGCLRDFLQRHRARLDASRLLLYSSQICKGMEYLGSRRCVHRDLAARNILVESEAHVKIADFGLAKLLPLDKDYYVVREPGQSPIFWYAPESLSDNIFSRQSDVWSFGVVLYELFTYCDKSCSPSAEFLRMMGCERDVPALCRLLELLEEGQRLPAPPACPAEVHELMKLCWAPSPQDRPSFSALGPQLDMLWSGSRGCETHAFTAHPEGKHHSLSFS
T2 sequence (P23458 866-1154): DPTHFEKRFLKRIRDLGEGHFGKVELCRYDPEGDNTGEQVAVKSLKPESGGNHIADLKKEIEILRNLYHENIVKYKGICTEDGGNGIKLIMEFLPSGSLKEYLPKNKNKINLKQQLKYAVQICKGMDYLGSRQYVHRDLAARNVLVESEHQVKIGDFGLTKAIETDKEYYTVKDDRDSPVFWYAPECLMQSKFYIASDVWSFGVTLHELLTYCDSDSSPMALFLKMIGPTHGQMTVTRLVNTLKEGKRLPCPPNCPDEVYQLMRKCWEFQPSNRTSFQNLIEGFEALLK

With `CN(c1ccc(O)cc1)c1cc2c(cn1)ncn2C` [Compound 17, 4-(methyl(1-methyl-1H-imidazo[4,5-c]pyridin-6-yl)amino)phenol], the IC50 was over 1000 nM in test [1] (setting [2]), over 1000 nM at human JAK3 and 0.01 to 100 nM on human JAK1.

As to `CN(c1ccc(CC#N)cc1)c1cc2c(cn1)ncn2C` [Compound 26, 2-(4-(Methyl(1-methyl-1H-imidazo[4,5-c]pyridin-6-yl)amino)phenyl)acetonitrile], the IC50 in test [1] (setting [2]) is over 1000 nM; at human JAK3, over 1000 nM; at human JAK1 it was 0.01 to 100 nM.

`COC(=O)c1ccc(N(C)c2cc3c(cn2)ncn3C)c(C)c1` [Compound 27, Methyl 3-methyl-4-(methyl(1-methyl-1H-imidazo[4,5-c]pyridin-6-yl)amino)benzoate]: the figures for the IC50 (in test [1] (setting [2]); at human JAK3; at human JAK1) were over 1000 nM, over 1000 nM and 101 to 500 nM, respectively.

`CCc1cc(F)ccc1N(C)c1cc2c(cn1)ncn2C` [Compound 28, N-(2-Ethyl-4-fluorophenyl)-N,1-dimethyl-1H-imidazo[4,5-c]pyridin-6-amine]: the IC50 is over 1000 nM in test [1] (setting [2]), over 1000 nM at human JAK3 and 0.01 to 100 nM on human JAK1.

As for `Cc1cc(CO)ccc1N(C)c1cc2c(cn1)ncn2C` [Compound 29, (3-Methyl-4-(methyl(1-methyl-1H-imidazo[4,5-c]pyridin-6-yl)amino)phenyl) MeOH], the IC50 in test [1] (setting [2]) is over 1000 nM; on human JAK3 it was over 1000 nM; at human JAK1 it was 0.01 to 100 nM.

For the compound `CNC(=O)c1ccc(N(C)c2cc3c(cn2)ncn3C)c(C)c1` [Compound 30, N,3-Dimethyl-4-(methyl(1-methyl-1H-imidazo[4,5-c]pyridin-6-yl)amino)-benzamide], the IC50 in test [1] (setting [2]) is over 1000 nM; on human JAK3 it was over 1000 nM; on human JAK1, 101 to 500 nM.

`Cc1cc(C#N)ccc1N(C)c1cc2c(cn1)ncn2C` [Compound 31, 3-Methyl-4-(methyl(1-methyl-1H-imidazo[4,5-c]pyridin-6-yl)amino)benzonitrile]: the IC50 is over 1000 nM in test [1] (setting [2]), over 1000 nM at human JAK3 and 0.01 to 100 nM at human JAK1.

Regarding `Cc1cc(C(N)=O)ccc1N(C)c1cc2c(cn1)ncn2C` [Compound 32, 3-Methyl-4-(methyl(1-methyl-1H-imidazo[4,5-c]pyridin-6-yl)amino)benzamide], the values for the IC50 (in test [1] (setting [2]); at human JAK3; on human JAK1) were over 1000 nM, over 1000 nM and 0.01 to 100 nM, respectively.

For `COc1ccc(COc2ccc(N(C)c3cc4c(cn3)ncn4C)c(C)c2)cc1` [Compound 33, N-(4-(4-Methoxybenzyloxy)-2-methylphenyl)-N,1-dimethyl-1H-imidazo[4,5-c]pyridin-6-amine], the IC50 in test [1] (setting [3]) was over 1000 nM; at human JAK3, over 1000 nM; at human JAK1, 0.01 to 100 nM.

Take `CCc1ccccc1N(CC)c1cc2c(cn1)ncn2C` [Compound 34, N-Ethyl-N-(2-ethylphenyl)-1-methyl-1H-imidazo[4,5-c]pyridin-6-amine]: the IC50 in test [1] (Homo sapiens, HeLa) is over 1000 nM; at human JAK3, 501 to 1000 nM; on human JAK1, 0.01 to 100 nM.

Regarding `CCc1ccccc1N(CC1CC1)c1cc2c(cn1)ncn2C` [Compound 35, N-(cyclopropylmethyl)-N-(2-ethylphenyl)-1-methyl-1H-imidazo[4,5-c]pyridin-6-amine], the figures for the IC50 (in test [1] (setting [2]); at human JAK3; on human JAK1) were over 1000 nM, 501 to 1000 nM and 0.01 to 100 nM, respectively.

On to `Cc1cc(O)ccc1N(C)c1cc2c(cn1)ncn2C` [Compound 38, 3-Methyl-4-(methyl(1-methyl-1H-imidazo[4,5-c]pyridin-6-yl)amino)phenol], for which the IC50 was over 1000 nM in test [1] (setting [2]), 501 to 1000 nM on human JAK3 and 0.01 to 100 nM on human JAK1.

For the compound `CN(c1cc2c(cn1)ncn2C)c1ccccc1OC(F)F` [Compound 39, N-(2-(difluoromethoxy)phenyl)-N,1-dimethyl-1H-imidazo[4,5-c]pyridin-6-amine], the IC50 in test [1] (setting [2]) was over 1000 nM; on human JAK3, 501 to 1000 nM; at human JAK1 it was 0.01 to 100 nM.

Regarding `COc1ccc(COc2ccc(C)c(N(C)c3cc4c(cn3)ncn4C)c2)cc1` [Compound 43, N-(5-(4-methoxybenzyloxy)-2-methylphenyl)-N,1-dimethyl-1H-imidazo[4,5-c]pyridin-6-amine], the IC50 in test [1] (setting [3]) is over 1000 nM; on human JAK3, over 1000 nM; on human JAK1 it was 101 to 500 nM.

For the compound `Cc1cc(OCC#N)ccc1N(C)c1cc2c(cn1)ncn2C` [Compound 47, 2-(3-methyl-4-(methyl(1-methyl-1H-imidazo[4,5-c]pyridin-6-yl)amino)phenoxy)acetoni-trile], the half-maximal inhibitory concentration (IC50) in test [1] (setting [2]) was over 1000 nM; on human JAK3, 501 to 1000 nM; on human JAK1, 0.01 to 100 nM.

For `Cc1cc(OCCCC#N)ccc1N(C)c1cc2c(cn1)ncn2C` [Compound 48, 4-(3-methyl-4-(methyl(1-methyl-1H-imidazo[4,5-c]pyridin-6-yl)amino)phenoxy)butane nitrile], the IC50 was over 1000 nM in test [1] (setting [2]), over 1000 nM at human JAK3 and 0.01 to 100 nM at human JAK1.

With `Cc1ccc(OCc2ccccc2)cc1N(C)c1cc2c(cn1)ncn2C` [Compound 56, N-(5-(benzyloxy)-2-methylphenyl)-N,1-dimethyl-1H-imidazo[4,5-c]pyridin-6-amine], the IC50 was over 1000 nM in test [1] (setting [3]), over 1000 nM on human JAK3 and 101 to 500 nM at human JAK1.

As for `Cc1ccc(OCC#N)cc1N(C)c1cc2c(cn1)ncn2C` [Compound 57, 2-(4-methyl-3-(methyl(1-methyl-1H-imidazo[4,5-c]pyridin-6-yl)amino)phenoxy)acetoni-trile], the values for the IC50 (in test [1] (setting [2]); on human JAK3; on human JAK1) were over 1000 nM, 101 to 500 nM and 0.01 to 100 nM, respectively.

Turning to `Cc1ccc(OCCCC#N)cc1N(C)c1cc2c(cn1)ncn2C` [Compound 60, 4-(4-methyl-3-(methyl(1-methyl-1H-imidazo[4,5-c]pyridin-6-yl)amino)phenoxy)butane nitrile], the IC50 in test [1] (setting [2]) is over 1000 nM; on human JAK3 it was 101 to 500 nM; at human JAK1, 0.01 to 100 nM.

Turning to `Cc1ccc(OCc2cccnc2)cc1N(C)c1cc2c(cn1)ncn2C` [Compound 61, N,1-dimethyl-N-(2-methyl-5-(pyridin-3-ylmethoxy)phenyl)-1H-imidazo[4,5-c]pyridin-6-amine], the IC50 in test [1] (setting [3]) was over 1000 nM; on human JAK3 it was over 1000 nM; on human JAK1, 0.01 to 100 nM.

On to `Cc1ccc(OCc2ccc(Cl)cc2)cc1N(C)c1cc2c(cn1)ncn2C` [Compound 62, N-(5-(4-chlorobenzyloxy)-2-methylphenyl)-N,1-dimethyl-1H-imidazo[4,5-c]pyridin-6-amine], for which the IC50 in test [1] (setting [3]) is over 1000 nM; at human JAK3 it was over 1000 nM; at human JAK1, 501 to 1000 nM.

As to `Cc1ccc(OCC(C)C)cc1N(C)c1cc2c(cn1)ncn2C` [Compound 63, N-(5-isobutoxy-2-methylphenyl)-N,1-dimethyl-1H-imidazo[4,5-c]pyridin-6-amine], the IC50 was over 1000 nM in test [1] (setting [2]), over 1000 nM at human JAK3 and 101 to 500 nM on human JAK1.

As to `Cc1c(OCC#N)cccc1N(C)c1cc2c(cn1)ncn2C` [Compound 64, 2-(2-methyl-3-(methyl(1-methyl-1H-imidazo[4,5-c]pyridin-6-yl)amino)phenoxy)acetoni-trile], the IC50 in test [1] (setting [2]) was over 1000 nM; on human JAK3, 101 to 500 nM; on human JAK1 it was 0.01 to 100 nM.

The term IC50 denotes the concentration at which inhibition is half-maximal.

The values above are taken from patent publication US20130217664A1, “NOVEL COMPOUNDS USEFUL FOR THE TREATMENT OF DEGENERATIVE AND INFLAMMATORY DISEASES” (priority 2012, published 2013).
